Data published in PMC8365601, “Terphenyl-Based Small-Molecule Inhibitors of Programmed Cell Death-1/Programmed Death-Ligand 1 Protein–Protein Interaction” (Journal of Medicinal Chemistry, 2021).

What was measured:
PD-1/PD-L1 interaction = target: T1, PD-1/PD-L1 interaction (Homo sapiens, UniProt Q9NZQ7); assay: PD-1/PD-L1 ICB assay (Jurkat-ECs with CHO/TCRAct/PD-L1 cells, luciferase); assay type: cell-based; conditions: 6 h; fold induction of luminescence
T1 construct: host or cells: CHO-K1 (CHO/TCRAct/PD-L1) and Jurkat effector cells
Experimental: After a successful optimization of the terphenyl compounds, the activity of the optimized molecules 7a and 8a–j in a cellular context was assessed. To this end, we first performed the PD-1/PD-L1 ICB assay. In this assay, T-cell receptor (TCR)-mediated activation of Jurkat effector cells (Jurkat-ECs) is reduced by the presence of PD-L1, exposed at the surface of CHO/TCRAct/PD-L1 cells (Figure 3A).
The functional assay of the blockade of PD-1/PD-L1 interaction in vitro (PD-1/PD-L1 Blockade Bioassay, Promega) was performed according to the manufacturer’s protocol. CHO/TCRAct/PD-L1 cells or CHO/TCRAct or CHO-K1 cells were seeded on 96-well white plates at the density of 10,000 cells/well and the next day overlaid with Jurkat T cells (20,000 cells/well) in the presence of increasing concentrations of the compounds with DMSO only as a control (the concentration of DMSO was kept constant at 0.1%) or atezolizumab, as a positive control, anti-PD-L1 monoclonal antibody (Selleckchem). The 2.5-fold dilutions of atezolizumab were prepared in the assay buffer (RPMI 1640 + 1% FBS) on the day of the assay. Activation of the Jurkat T cells, reflected by luciferase activity, was monitored by luminescence measurements after 6 h of incubation (37 °C, 5% CO2), and 20 min of additional incubation with the Bio-Glo assay reagent (Promega) at room temperature. The luminescence was read on a Spark microplate reader (Tecan). The data are presented as fold induction of the luminescence signal relative to either untreated (for atezolizumab) or DMSO-treated (for compound) cells. Data points represent mean ± SD values from three to five independent experiments. Half-maximal effective concentrations (EC50 values) were calculated from the Hill curve fitting to the experimental data using Origin Pro 2020 software (OriginLab).

[1] = system: primary CD4+ and CD8+ T cells (PBMCs); assay: T-cell activation (TCA) assay, PBMCs with CHO/TCRAct/PD-L1 cells, flow cytometry; assay type: cell-based, human; conditions: 48 h; compounds 0.1, 0.5, 2.5 μM; mAbs 5 μg/mL
Experimental: A standard ICB assay relies on artificial Jurkat-ECs, which are surrogates of T-cells. To verify the potential of the compounds to reactivate the PD-L1-blocked primary T cells, a modified assay termed T-cell activation (TCA) was carried out.[32] In this assay, human primary peripheral blood mononuclear cells (PBMCs) are allowed to make contact with CHO/TCRAct/PD-L1 cells alone or in the presence of PD-1/PD-L1 blockers, and the activation of CD4^+ and CD8^+ T cell is monitored by flow cytometry.
Anticoagulant citrate dextrose-A-treated blood from healthy donors was purchased from the Regional Center of Blood Donation and Blood Therapy in Krakow, Poland. PBMCs were isolated from whole blood by density gradient centrifugation using Pancoll human separating solution (PAN-Biotech GmbH, Aidenbach, Germany). The separated cells were washed and resuspended in RPMI 1640 medium (Biowest) containing 10% FBS (Biowest). PBMCs were added at an amount of 3 × 10^5 to CHO, CHO/TCRAct, or CHO/TCRAct/PD-L1 cells preseeded on 24-well plates in the presence of either anti-PD-L1 mAbs (at the final concentration 5 μg/mL): durvalumab (Selleckchem), atezolizumab (Selleckchem), or avelumab (MedChemExpress) or tested compounds at the concentrations 0.1, 0.5, and 2.5 μM. Untreated cells were used as controls for antibody treatment, while DMSO-treated cells [0.1% (v/v)] were used as controls for compound treatment. The cells were incubated for 48 h (37 °C, 5% CO2) and then detached from the plates with TrypLe Select Enzyme (Thermo Fisher). PBMCs were stained for 20 min at room temperature with the antibodies: anti-CD4-FITC, anti-CD8-BV510, anti-CD69-APC, anti-CD25-PE, anti-HLA-DR-PerCP, and anti-PD1-PECy7 (Becton Dickinson Biosciences, BD). Following two washing steps, the cells were analyzed with a FACSCanto II cytometer. Data analysis was carried out with FlowJo software, followed by statistical significance calculations done with Origin Pro 2020 software (OriginLab). Statistical significance was analyzed with one-way analysis of variance (ANOVA), followed by the Fisher’s posthoc test: *p < 0.05, **p < 0.01, […].

[2] = system: PBMCs cocultured with CHO/TCRAct/PD-L1 cells; assay: Cytokine accumulation in culture media of the TCA assay (CBA Th1/Th2/Th17 kit); assay type: cell-based, human; conditions: TCA assay supernatants, four donors
Experimental: In addition to the expression of surface markers, the accumulation of immune-related cytokines in the culture media collected in the TCA assay was monitored with the cytometric bead array (CBA) human Th1/Th2/Th17 kit. […] Also, the levels of IL-6, IFN-γ, and IL-2 increased, but these increases were not statistically significant.
The concentration of the cytokines (IL-2, IL-4, IL-6, IL-10, IL-17A, IFN-γ, and TNFα) in supernatants was determined using the CBA Human Th1/Th2/Th17 kit (BD Biosciences), with data acquisition using the FACSCanto flow cytometer. The CBA beads were discriminated in FL-4 and FL-5 channels, while the concentration of specified cytokines was determined by the intensity of FL-2 fluorescence, using the respective standard reference curve and FCAP Array software (BD Biosciences). IL-4 was below the detection level and is not presented in the manuscript. Statistical significance was analyzed with one-way ANOVA using the Origin Pro 2020 software, followed by the Fisher’s posthoc test: *p < 0.05, **p < 0.01, […].

T1 sequence (Q9NZQ7 19-290): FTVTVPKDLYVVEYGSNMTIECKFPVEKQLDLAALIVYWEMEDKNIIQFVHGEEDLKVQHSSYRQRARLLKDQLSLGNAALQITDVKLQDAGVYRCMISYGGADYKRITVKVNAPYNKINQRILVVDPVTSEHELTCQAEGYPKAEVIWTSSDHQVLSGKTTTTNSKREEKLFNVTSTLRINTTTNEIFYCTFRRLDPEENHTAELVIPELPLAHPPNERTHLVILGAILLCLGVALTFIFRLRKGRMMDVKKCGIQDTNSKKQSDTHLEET

Substance: atezolizumab: therapeutic anti-PD-L1 monoclonal antibody, positive control
- activation of Jurkat-ECs (PD-1/PD-L1 interaction): full activation of Jurkat-ECs is restored
- numbers of PD-1-positive T cells [1]: increases the expression of PD-1 on T-cells
- accumulation of immune-related cytokines in culture media [2]: significantly increased levels of IL-17A, TNF-α, and IL-10
